Results: patent US20130136753A1, “PAXILLIN AS A THERAPEUTIC OR DIAGNOSTIC MARKER FOR CANCER” (UNIVERSITY OF ROCHESTER, priority 2010, published 2013)

Key:
Src = assay: Western blot of Src phosphorylation in LnCAP cells; format: cell-based, human; conditions: 20 μM, 30 min before 25 nM DHT
Method: (§1) LnCAP and PC3 cell lines were obtained from ATCC and cultured in RPMI 1640 medium (Invitrogen) containing 10% FBS and 1% penicillin-streptomycin. For experiments involving pharmacological inhibitors, cells were treated overnight with serum-free, phenol red-free RPMI 1640 media. Thereafter, cells were treated with vehicle (0.1% DMSO) or inhibitors Galardin, PP2, AG1478 (Calbiochem), flutamide, or erlotinib (Sigma) for 30 minutes before stimulation with 0.1% ethanol (vehicle) or 25 nM DHT for 30 minutes.
(§2) Western blots were performed as described (Evaul and Hammes, “Cross-Talk Between G Protein-Coupled and Epidermal Growth Factor Receptors Regulates Gonadotropin-Mediated Steroidogenesis in Leydig Cells,” J. Biol. Chem. 283(41):27525-27533 (2008), which is hereby incorporated by reference in its entirety). Primary antibodies were: paxillin, paxillinphospho-Tyr118, paxillin-phospho-Tyr31, Akt1/2/3, Akt1/2/3 phospho-Ser473, EGFR at 1:1000 dilution, and EGFR phospho-Tyr845 (1:500) (Santa Cruz Biotechnology); paxillin phospho-Ser126 (Invitrogen); paxillin phospho-Ser83 (ECM Biosciences); p44/42-Erk1/2, phospho-p44/42-Erk1/2 (Thr202/[…]), phospho-Ser217/221-MEK1/2, src, src-phospho-Tyr416 (Cell Signaling Technology) at 1:1000 dilutions and f3-actin (1:5000, Millipore).

PSA mRNA = PSA mRNA expression by real time PCR in LnCAP cells; format: cell-based, human; conditions: 20 μM U0126 or 20 μM AG1478 30 minutes before 25 nM DHT 24 hours
Method: RNA was isolated with the RNeasy mini kit (Qiagen) according to manufacturer's instructions. Levels of Kallikrein-related peptidase-3 (KLK3, or prostate-specific antigen (“PSA”)), paxillin, cyclin D1, and GAPDH expression were analyzed by the A/A-Ct method using Taqman gene expression assay primers (assay ID# Hs99999905_ml-GAPDH, Hs02576345_ml-KLK3, Hs99999004_ml-CCND1, and Hs01104424-ml-PXN; Applied Biosystems) on an ABI StepOne plus real-time PCR machine.

MEK = conditions: MLTC cells; 20 μM; cited from earlier work
paxillin [1] = assay: Western blot of paxillin phosphorylation in LnCAP cells; format: cell-based, human; conditions: for DHT-induced paxillin phosphorylation at all four sites (tyrosines 31/118, serines 83/126): AG1478 or 20 μM PP2 before DHT
Method: as §1, §2

Erk1/2 = assay: Western blot of Erk1/2 phosphorylation in LnCAP cells; format: cell-based, human; conditions: for DHT-induced Erk1/2 phosphorylation: inhibitor 30 min (100 nM flutamide, 20 μM AG1478, 5 μM Erlotinib, 20 μM PP2, 20 μM galardin) before 25 nM DHT 30 min
Method: Thereafter, cells were treated with vehicle (0.1% DMSO) or inhibitors Galardin, PP2, AG1478 (Calbiochem), flutamide, or erlotinib (Sigma) for 30 minutes before stimulation with 0.1% ethanol (vehicle) or 25 nM DHT for 30 minutes.
PC3 or LnCAP cells were treated with non-targeting siRNA pool (ThermoFisher Scientific) or paxillin-specific siRNA according to manufacturer's instructions. Two sets of human paxillin siRNAs were used: 1) human paxillin siRNA (Santa Cruz Biotechnology) containing three target-specific 20-25 nucleotide siRNAs or 2) human paxillin siRNA ON-TARGET plus SMARTpoo1 (ThemoFisher Scientific) containing four siRNAs targeting the paxillin mRNA. […] For experiments involving constitutively active (“CA”) Raf (William Walker, University of Pittsburgh) or MEK (Melanie Cobb, University of Texas Southwestern Medical Center), cells were co-transfected with paxillin or nonspecific siRNAs and cDNAs encoding caRaf or caMEK.

androgen receptors (AR) = assay: Androgen receptor nuclear localization by fluorescence imaging; format: cell-based
Method: Cellular staining was carried out using fluorescence imaging for androgen receptors (AR) and DAPI. […] Furthermore, knockdown and rescue experiments confirm that phosphoserine-paxillin is the moiety regulating AR translocation to the nucleus, since the mutant lacking the Erk serine targets (S A) cannot sustain AR nuclear localization (FIG. 17F versus 17E). Importantly, leptomycin B, which prevents nuclear export through CRM, rescues the nuclear localization of the AR in paxillin-knockdown cells stimulated with DHT (FIG. 17D). […] The latter allows the AR to remain in the nucleus, bind DNA, and promote transcription.

paxillin [2] = assay: Subcellular localization of paxillin and phosphoserine-paxillin; format: cell-based; conditions: upon stimulation with DHT or EGF
From the text: The subcellular localization of paxillin versus phosphoserine-paxillin was first examined. As expected, paxillin is localized primarily in the cytoplasm in resting cells (FIG. 14, unstimulated). […] This confirms the model of FIG. 9C, which posits that phosphoserine-paxillin regulates nuclear processes. Therefore, a common AR-mediated transcriptional event was examined: expression of PSA mRNA. […] Furthermore, knockdown of endogenous paxillin in LnCAP cells prevented DHT-induced induction of PSA mRNA expression and promoter activity (FIGS. 9A and 15). […] Together, these studies further emphasize that paxillin regulates cross-talk between extranuclear kinase signaling and intranuclear transcription.

LnCAP cells = assay: MTT cell proliferation assay, LnCAP cells; format: cell-based, human
Method: (§3) PC3 or LnCAP cells were treated with non-targeting siRNA pool (ThermoFisher Scientific) or paxillin-specific siRNA according to manufacturer's instructions. Two sets of human paxillin siRNAs were used: 1) human paxillin siRNA (Santa Cruz Biotechnology) containing three target-specific 20-25 nucleotide siRNAs or 2) human paxillin siRNA ON-TARGET plus SMARTpoo1 (ThemoFisher Scientific) containing four siRNAs targeting the paxillin mRNA. The latter was used for all experiments described in the accompanying Examples, although results were similar with both pools. For experiments involving constitutively active (“CA”) Raf (William Walker, University of Pittsburgh) or MEK (Melanie Cobb, University of Texas Southwestern Medical Center), cells were co-transfected with paxillin or nonspecific siRNAs and cDNAs encoding caRaf or caMEK. After 72 hours, cells were treated overnight with serum-free, phenol red-free RPMI 1640 media and stimulated with 0.1% ethanol/DMSO (vehicle), 25 nM DHT (Steraloids), 20 ng/ml EGF (BD Biosciences), or 100 nM PMA (Sigma) for the times indicated for Western blots or 24 hours for MTT assays.
(§4) MTT assays were performed using a colorimetric assay cell proliferation kit (Roche Applied Science) according to the manufacturer's instructions.

EGFR = EGFR transactivation assay in A431 cells; format: cell-based
Method: A431 cells were used to detect DHT-mediated release of EGFR ligands from LnCAP cells. A431 cells (ATCC) were cultured in DMEM/F-12 (1:1) medium (Invitrogen) containing 10% FBS and 1% penicillin-streptomycin, serum-starved overnight, and then stimulated with medium from DHT−, DHT+Galardin−, or vehicle (0.1% ethanol)-treated LnCAP cells for 60 minutes. As controls, A431 cells were stimulated with DHT or media alone. Thereafter, A431 cells were isolated for Western blot analysis to detect phosphorylated and total EGFR.

paxillin [3] = assay: Western blot of paxillin phosphorylation in PC3 cells; format: cell-based, human
Method: FIGS. 8A-D illustrate that PMA-mediated Erk1/2 activation is paxillin-independent, but PMA-mediated proliferation still requires serine phosphorylation of paxillin. In FIG. 8A, paxillin (Pax) or non-targeting (Nsp) siRNA-treated LnCAP cells were serum-starved and treated with PMA (100 nM) or EGF (20 ng/ml) for 30 minutes. Western blots were performed for paxillin and total and phosphorylated Erk1/2. In FIG. 8B, serum-starved PC3 cells were pretreated with 0.1% DMSO or 20 μM U0126 ([…]) for 30 minutes before stimulation with PMA (100 nM) or EGF (20 ng/ml) for another 30 minutes. Thereafter, levels of paxillin and phosphorylated paxillin at tyrosine-118 (Pax p-Y118) and serine-126 (Pax p-S126) were detected by Western blot. In FIG. 8C, cell proliferation (MTT assay) of PC3 cells treated (24 hours) with 0.1% DMSO (M) or 100 nM PMA in the presence or absence of 20 μM U0126. In FIG. 8D, PC3 cells were initially transfected with Paxillin (Pax) or non-targeting (Nsp) siRNA. After 96 hours, media were removed, and cells were then either mock-transfected or transfected with wild-type paxillin (left panel) or paxillin mutated at tyrosines 31/118 (Y31A/Y118A, middle panel) or serines 83/126/130 (S83A/S126A/S130A, right panel). […] Cell proliferation was detected by MTT. […]

PC3 cells = assay: MTT cell proliferation assay, PC3 cells; format: cell-based, human; conditions: 100 nM PMA 24 hours, 20 μM U0126
Method: as §3, §4

[4] = target: prostate-specific membrane antigen (PSMA) (Homo sapiens, UniProt Q04609); conditions: cited from earlier work
Sequence of prostate-specific membrane antigen (PSMA) (Q04609 whole entry): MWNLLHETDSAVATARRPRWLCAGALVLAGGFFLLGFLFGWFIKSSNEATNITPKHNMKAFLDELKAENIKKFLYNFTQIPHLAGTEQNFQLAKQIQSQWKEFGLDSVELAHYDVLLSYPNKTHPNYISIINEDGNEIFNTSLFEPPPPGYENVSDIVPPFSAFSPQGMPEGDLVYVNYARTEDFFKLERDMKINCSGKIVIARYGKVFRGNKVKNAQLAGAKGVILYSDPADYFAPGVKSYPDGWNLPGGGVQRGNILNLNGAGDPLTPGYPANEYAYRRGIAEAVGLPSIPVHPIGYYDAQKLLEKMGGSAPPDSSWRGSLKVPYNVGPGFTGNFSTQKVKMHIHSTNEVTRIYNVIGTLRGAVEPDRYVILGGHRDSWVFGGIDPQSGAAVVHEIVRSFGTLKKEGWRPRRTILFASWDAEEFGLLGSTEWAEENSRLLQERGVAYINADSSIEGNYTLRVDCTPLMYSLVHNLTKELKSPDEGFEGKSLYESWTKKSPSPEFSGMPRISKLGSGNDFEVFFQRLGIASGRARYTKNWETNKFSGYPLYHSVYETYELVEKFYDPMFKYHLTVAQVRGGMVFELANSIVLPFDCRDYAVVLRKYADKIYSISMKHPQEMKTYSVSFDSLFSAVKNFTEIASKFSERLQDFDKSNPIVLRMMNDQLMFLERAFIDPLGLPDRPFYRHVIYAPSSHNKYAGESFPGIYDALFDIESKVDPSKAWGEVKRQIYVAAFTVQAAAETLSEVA

Molecule: COc1cc2ncnc(Nc3cccc(Cl)c3)c2cc1OC [AG1478]
- DHT-induced Src phosphorylation (Src): blocked
- DHT-induced expression of PSA mRNA (PSA mRNA): abrogated
- EGF but not FGF-induced MEK activation (MEK): specifically blocks
- DHT-induced paxillin phosphorylation at all four sites (tyrosines 31/118, serines 83/126) (paxillin [1]): abrogated
- EGF-induced Erk activation (Erk1/2; 20 μM AG1478, EGF 20 ng/ml): specifically blocks
- FGF-induced Erk activation (Erk1/2; 20 μM AG1478, FGF 25 ng/ml): does not block
- DHT-induced Erk1/2 phosphorylation (Erk1/2): blocked

Molecule: C[C@]12CCC(=O)C[C@@H]1CC[C@@H]1[C@@H]2CC[C@]2(C)[C@@H](O)CC[C@@H]12 [DHT]
- phosphorylation of paxillin at tyrosines 31/118 and serines 83/126 (paxillin [1]; 25 nM DHT, 30 minutes): triggered
- AR nuclear localization (androgen receptors (AR); DHT-treatment): promotes
- Erk1/2 activation from 15 to 120 minutes (Erk1/2; 25 nM DHT or 20 ng/ml EGF): induced
- Erk1/2 phosphorylation/activation (Erk1/2; 25 nM DHT, 30 minutes): significantly induced
- localization of total paxillin (T-Pax) (paxillin [2]): relocalizes the nucleus
- share of phosphoserine-paxillin (PS-PAX) in the nucleus (paxillin [2]): nearly all
- LnCAP proliferation by both MTT and BrdU incorporation (LnCAP cells; 0.1-100 nM DHT): promoted
- cell proliferation (MTT) (LnCAP cells; LnCAP, DHT 25 nM or EGF 20 ng/ml, 24 hours): significantly stimulated
- EGF receptor activation in A431 cells, direct stimulation (EGFR; DHT alone (25 nM), no LnCAP cells): did not promote
- EGF receptor phosphorylation in A431 cells by medium from treated LnCAP cells (EGFR; medium from 25 nM DHT-treated LnCAP cells, 60 minutes): increased

Molecule: C#Cc1cccc(Nc2ncnc3cc(OCCOC)c(OCCOC)cc23)c1 [Erlotinib]
- DHT-induced Erk1/2 phosphorylation (Erk1/2): blocked

Molecule: CCCCCCCCCCCCCC(=O)O[C@@H]1[C@@H](C)[C@@]2(O)[C@@H](C=C(CO)C[C@]3(O)C(=O)C(C)=C[C@@H]23)[C@@H]2C(C)(C)[C@]12OC(C)=O [PMA]
- paxillin phosphorylation (tyrosine and serine) (paxillin [3]; PMA 100 nM or EGF 20 ng/ml, 30 minutes): only promoted serine phosphorylation

Molecule: CC(C)(C)n1nc(-c2ccc(Cl)cc2)c2c(N)ncnc21 [PP2]
- DHT-induced paxillin phosphorylation at all four sites (tyrosines 31/118, serines 83/126) (paxillin [1]): abrogated
- DHT-induced Erk1/2 phosphorylation (Erk1/2): blocked

Molecule: N#CC(=C(/N)Sc1ccccc1N)/C(C#N)=C(\N)Sc1ccccc1N [U0126]
- DHT-induced expression of PSA mRNA (PSA mRNA): abrogated
- DHT-induced phosphorylation of paxillin at serines 83/126 (paxillin [1]; 20 μM U0126): blocked
- PMA-induced proliferation of PC3 cells (PC3 cells): blocked
- PMA-induced serine phosphorylation of paxillin (paxillin [3]; 20 μM U0126): blocked

Molecule: CNC(=O)[C@H](Cc1c[nH]c2ccccc12)NC(=O)[C@@H](CC(=O)NO)CC(C)C [galardin]
- DHT-induced Erk1/2 phosphorylation (Erk1/2): block
- ability of medium from DHT-treated LnCAP cells to activate EGF receptor signaling in A431 cells (EGFR; 20 μM galardin added to DHT (25 nM)-treated LnCAP cells): blocked

Molecule: CCC(=C/[C@H](C)C/C=C/C(C)=C/[C@@H](C)C(=O)[C@@H](C)[C@H](O)[C@@H](C)C/C(C)=C/C(=O)O)/C=C/[C@@H]1OC(=O)C=C[C@@H]1C [leptomycin B]
- nuclear localization of the AR in paxillin-knockdown cells stimulated with DHT (androgen receptors (AR); leptomycin B prevents nuclear export through CRM): rescues

Molecule: Aptamer A10-3: RNA aptamer which binds specifically to PSMA (GGGAGGACGAUGCGGAUCAGCCAUGUUUACGUCACUCCUUGUCAAUCCUCAUCGGC; listed as RNA, chemistry not given here)
- binding to PSMA [4]: binds specifically

B1: Aptamer A9: RNA aptamer which binds specifically to PSMA (nucleic acid)
chain: GGGAGGACGAUGCGGACCGAAAAAGACCUGACUUCUAUACUAAGUCUACGUUCCCAGACGACUCGCCCGA
modifications: listed as RNA, chemistry not given here
- binding to PSMA [4]: binds specifically

B2: Aptamer A10: RNA aptamer which binds specifically to PSMA (nucleic acid)
chain: GGGAGGACGAUGCGGAUCAGCCAUGUUUACGUCACUCCUUGUCAAUCCUCAUCGGCAGACGACUCGCCCGA
modifications: listed as RNA, chemistry not given here
- binding to PSMA [4]: binds specifically
